The test has as its system T1, MpBgl3.
T1 construct: native secreted enzyme purified from culture filtrate (cellobiose-grown), N-glycosylated
Nature of the test: p-nitrophenol release, absorbance at […] nm; SigrafW fit. Type of test: biochemical, Malbranchea pulchella. The note with it: McIlvaine buffer pH 6.0, 50 °C.

By Km is commonly meant the concentration of substrate that gives half-maximal velocity.

SMILES strings stand for the structures.

As for `O=[N+]([O-])c1ccc(O[C@@H]2O[C@H](CO)[C@@H](O)[C@H](O)[C@H]2O)cc1` [pNPG], the Km came out at 330 µM.
